Assay [1] deals with rat brain synaptosome (re)uptake of noradrenaline (3H-NA). The assay is described as follows: Inhibition of brain synaptosome uptake of noradrenaline. The assay is classed as biochemical. The following applies: positive control drug 0.1 mM; 3H-NA 300 nM, 37° C.; lower CPM = more inhibition.
Procedure: 10 μl of substrate (^3H-5HT, ^3H-NA or ^3H-DA; final reaction concentration: 300 nM) is added in a 4° C. environment and is thoroughly mixed, and the tubes are placed in a 37° C. water bath for a warm bath for 5 minutes. After that, precooled Tris-Krebs buffer is added into each tube to terminate reaction, and the multichannel cell harvestor is immediately used for sucking filtration through fiberglass filter membrane, and the same solution in the same volume is used to wash tubes and filter. The filter membrane is removed and oven dried. The filter membrane is placed in the scintillation vial, methylbenzene scintillation fluid is added, and counting is performed with the β-liquid scintillation counter.
The test system of assay [2] is mouse. In words: Mouse swimming test. The following applies: 30 mg/kg/d intragastric, 14 days, within 4 minutes, x ± s, n = 10. The class given is in vivo. Here is the method: The despair test as put forth by Porsolt et al can serve as the evaluation model for the effects of antidepressant drugs. In this model, a mouse or a rat is placed in a limited and inescapable space for swimming, and the animal can be induced to have motionless status. Such status is a reflection of the animal's despair, and the status can be inhibited by some effective antidepressant drugs.
One (1) hour after the drug is administered on Day 14, the animal is placed into a 10×20 cm glass cylinder with water depth at 8˜10 cm and water temperature at 22˜24° C. Beginning from the 2nd minute, the accumulated time of motionless status within 4 minutes is recorded, and the results are as shown in Table 7.

Assay [3] has as its system rat brain synaptosome (re)uptake of dopamine (3H-DA). The assay is described as follows: Inhibition of brain synaptosome uptake of dopamine. The conditions noted are these: positive control drug 1 mM; 3H-DA 300 nM, 37° C.; lower CPM = more inhibition. The class given is biochemical. An excerpt:
The physiological mechanism for the […] and dopaminergic functions is similar to that for 5-hydroxytryptamine. Clinically, there are many antidepressant drugs that can block the reuptake of noradrenaline and/or 5-hydroxytryptamine and/or dopamine.
First of all, the method of Whittaker et al (Whittaker V P & Barker L A. The subcellular tractionation of brain tissue with special reference to the preparation of synaptosomes and their component organelles. In: Fried R. ed. In Methods in Neurochemistry, Vol. New York: Marcel Dakker, Inc, 1972) is referred to for preparing brain synaptosome, and the specific procedures are: decapitate the rat and take out the cerebrum quickly, place it in precooled normal saline, and remove cerebral pia mater and vascular tissues. Take cerebral cortex, and place it in cold sugar solution. Use ultrasonic cell disruptor for producing homogenate and centrifuging to obtain refined brain synaptosome for future use. […]

Another assay has as its target T1, MAO-A in mouse brain (Mus musculus, UniProt Q64133).
T1 construct: from tissue; host or cells: mouse brain
T1 sequence (Q64133 1-526): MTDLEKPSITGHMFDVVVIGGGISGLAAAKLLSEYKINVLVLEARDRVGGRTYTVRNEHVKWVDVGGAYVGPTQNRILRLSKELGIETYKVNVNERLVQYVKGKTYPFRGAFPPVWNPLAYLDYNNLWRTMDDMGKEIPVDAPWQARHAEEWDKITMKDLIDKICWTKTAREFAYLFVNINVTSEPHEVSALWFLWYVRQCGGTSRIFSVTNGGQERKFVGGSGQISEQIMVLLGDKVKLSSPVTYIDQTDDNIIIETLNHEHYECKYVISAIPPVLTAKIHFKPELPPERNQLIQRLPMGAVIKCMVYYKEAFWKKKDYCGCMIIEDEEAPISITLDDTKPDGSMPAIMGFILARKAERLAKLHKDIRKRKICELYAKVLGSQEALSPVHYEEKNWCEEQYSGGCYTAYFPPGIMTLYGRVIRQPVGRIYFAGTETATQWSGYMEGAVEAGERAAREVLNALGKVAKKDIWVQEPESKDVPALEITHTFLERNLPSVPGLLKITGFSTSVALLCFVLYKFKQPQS
The assay is described as follows: Inhibition of monoamine oxidase A in the brains of mice. The class given is in vivo. The conditions noted are these: 25 mg/kg; mouse brain after 14 days; x ± SD, n = 10. An excerpt:
(§1) The biological function of monoamine oxidase (MAO) lies in its adjustment of the level for in vivo endogenous amines (noradrenaline, dopamine and 5-hydroxytryptamine) and exogenous amine substances. Based on its substrate and its inhibitor specificity, monoamine oxidase can be divided into two types (MAO-A and MAO-B). Dopamine and tyramine are two MAO substrates, 5-HT and noradrenaline are Type A substrates, while β-phenethylamine and benzylamine are Type B substrates, and iprazid and tranylcypromine are nonselective inhibitors for MAO.
(§2) The mice are randomized into groups, and based on Table 6, intragastric administration of the corresponding doses of test Drug A (Sample 1-1 in Case of Implementation 1) is performed for each of the groups, which are administered once a day consecutively for 14 days, and normal saline is used as a control at the same time, and the positive control is paxil. One (1) hour after the last administration, the animals are put to death through neck dislocation, and the brain is immediately taken for testing MAO activity.

Another assay addresses T2, MAO-B in mouse brain (Mus musculus, UniProt Q8BW75).
T2 construct: from tissue; host or cells: mouse brain
T2 sequence (Q8BW75 1-520): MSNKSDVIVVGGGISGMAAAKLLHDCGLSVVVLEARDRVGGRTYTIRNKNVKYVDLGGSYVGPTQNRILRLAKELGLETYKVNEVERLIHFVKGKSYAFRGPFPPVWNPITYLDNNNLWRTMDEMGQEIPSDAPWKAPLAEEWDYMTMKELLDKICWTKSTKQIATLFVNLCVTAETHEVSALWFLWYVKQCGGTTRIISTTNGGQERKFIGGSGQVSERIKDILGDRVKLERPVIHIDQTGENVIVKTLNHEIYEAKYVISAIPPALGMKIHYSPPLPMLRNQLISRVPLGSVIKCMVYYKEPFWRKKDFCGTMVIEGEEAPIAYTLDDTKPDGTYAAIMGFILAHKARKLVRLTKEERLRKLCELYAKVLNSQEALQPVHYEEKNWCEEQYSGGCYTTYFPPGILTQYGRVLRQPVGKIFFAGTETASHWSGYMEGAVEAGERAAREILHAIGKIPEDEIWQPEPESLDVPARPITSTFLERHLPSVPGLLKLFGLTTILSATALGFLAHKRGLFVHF
In words: Inhibition of monoamine oxidase B in the brains of mice. The assay is classed as in vivo. The conditions noted are these: 25 mg/kg; mouse brain after 14 days; x ± SD, n = 10.
Source text: as §1, §2

The test system of another assay is rat. The assay is described as follows: Rat swimming test. The assay is classed as in vivo. The following applies: 30 mg/kg/d intragastric, 14 days, 5 minutes swimming, x ± s, n = 10. Here is the method:
After having fasted for 4 hours, the rats are placed in a 40×18 cm glass cylinder with water depth at 15 cm (water temperature at 25° C.) for swimming for 15 minutes, and are dried with a hot blower. Then, based on Table 8, the rats are randomized into 6 groups, and each of the groups receives intragastric administration of the corresponding dose of Drug A (Sample 1-1 in Case of Implementation 1) and B (Sample 10 in Case of Implementation 1), which is administered once a day consecutively for 14 days, and normal saline is used as control at the same time, and positive control is Venlafaxine. One (1) hour after the drug is administered for the last time, the rat swimming test begins, the swimming time is 5 minutes, and the motionless time during the 5 minutes for which they are swimming is recorded, and the results are as shown in Table 8.

Assay [4] relates to mouse. In words: Mouse tail suspension test. The class given is in vivo. The following applies: 50 mg/kg/d intragastric, 14 days, within 6 minutes, x ± s, n = 10. An excerpt:
The tail suspension test is a simple and easy experimental method introduced by Stern et al in 1985 for evaluation of antidepressant drugs. […] Clinically effective antidepressant drugs can reduce the motionless time of the mouse after it cannot successfully escape through its efforts following being suspended at the tail.
The mice are randomized into groups, and each of the groups receives intragastric administration of the corresponding dose of Drag A (Sample 1-1 in Case of Implementation 1), B (Sample 10 in Case of Implementation 1), C (Sample 7 in Case of Implementation 1), D (Sample 3 in Case of Implementation 1) and E (Sample 5 in Case of Implementation 1), which is administered once a day consecutively for 14 days, and normal saline is used as control at the same time, and positive control is Venlafaxine. One (1) hour after the drug is administered for the last time, the mouse tail suspension test is performed, the duration is 6 minutes, and the stationary and motionless time within the 6 minutes is recorded, and the results are as shown in Table 9.

Assay [5] has as its system mouse. The assay is described as follows: Analgesic effect, writhing test. The class given is in vivo. The following applies: 50 mg/kg; benzoquinone i.p. 30 minutes after drug; within 10 minutes; x ± s, n = 10. Here is the method: A chemical stimulant with definite solvents and at a definite concentration is injected into the abdominal cavity of the mouse to stimulate splanchnoderm and peritoneum parietale so as to cause deep, large-area and long-time inflammatory pain and result in behavioral reactions in the mouse such as concaving the abdomen, extending the trunk and back limbs and raising the buttocks, which are called the writhing response. […]
The mice are randomized into groups, and are respectively given test drugs based on Table 12, namely Drug A (Sample 1-1 in Case of Implementation 1), C (Sample 7 in Case of Implementation 1) and B (Sample 10 in Case of Implementation 1), and normal saline is used as control at the same time, and positive control group is acetyl salicylic acid. The mice are respectively injected intraperitoneally with 0.20 ml of 0.02% benzoquinone water solution 30 minutes later, and are immediately placed into a box with four sides sealed, and, beginning from the first occurrence of writhing responses in the mice, time is kept for 10 minutes, and the number of writhing responses in the mice is recorded within 10 minutes thereafter, and the results are as shown in Table 12.

Assay [6] has as its system mouse. The assay is described as follows: Anti-anxiety effect, mouse four board test. The assay is classed as in vivo. The following applies: 1 mg/kg/d; 30 minutes after drug; within 10 minutes; x ± s, n = 8. Here is the method:
The mice are randomized into groups, and are respectively given test drugs based on Table 10, namely Drug A (Sample 1-1 in Case of Implementation 1), B (Sample 10 in Case of Implementation 1), C (Sample 7 in Case of Implementation 1), F (Sample 9 in Case of Implementation 1) and G (Sample 11 in Case of Implementation 1), and normal saline is used as control, and positive control group is diazepam. The mouse is placed on the boards 30 minutes after the drug is administered, and is made to explore for 15 seconds. After that, whenever the mouse moves from one board to another board, one electric shock is given with amperage at 0.35 mA and duration time at 0.5 s. The mouse should present an obvious escape response because of this, and usually moves across 2 boards or 3 boards, if the mouse continues to run, no electric shock is given for […] thereafter.

We go through 6 compounds from patent US8062678B2, “Extractive of Piper laetispicum C.DC., its process and its uses” (priority 2004, dated 2011).

With `CNCCCN1c2ccccc2CCc2ccccc21` [Desipramine], the “Inhibition of Monoamine Uptake (CPM) Noradrenaline” value in assay [1] was 1499 CPM.

As for `CNCCC(Oc1ccc(C(F)(F)F)cc1)c1ccccc1` (stereo not drawn) [Fluoxetine], the “Accumulated Motionless Time” value with mouse [2] is 73.7 ± 17.2 s.

As to `Fc1ccc([C@@H]2CCNC[C@H]2COc2ccc3c(c2)OCO3)cc1` [Paxil], the “Inhibition of Monoamine Uptake (CPM) Dopamine” value in [3] worked out at 1197 CPM. The “MAO-A (OD)” value at MAO-A in mouse brain is 0.012 ± 0.005 OD. For the same compound, at MAO-B in mouse brain, the “MAO-B (OD)” value turned out to be 0.025 ± 0.008 OD.

As for `COc1ccc(C(CN(C)C)C2(O)CCCCC2)cc1` (stereo not drawn) [Venlafaxine], the “Accumulated Motionless Time” value with rat came to 211.2 ± 24.7 s; with mouse [4], 57.5 ± 43.0 s.

On to `CC(=O)Oc1ccccc1C(=O)O` [acetyl salicylic acid], for which, in the assay on mouse [5], the “Accumulated Number of Writhing Responses” value is reported as 9.89 ± 1.09.

Regarding `CN1C(=O)CN=C(c2ccccc2)c2cc(Cl)ccc21` [diazepam], in the assay with mouse [6], the “Accumulated Number of Electric Shocks” value worked out at 12.78 ± 2.05.
